The subject of one data set is E. coli. The settings on record: supplemented with appropriate nutrients; cited from earlier work.
The test system of another data set is S. cerevisiae. The settings on record: supplemented with appropriate nutrients; cited from earlier work.
Data set [1] relates to dihydrofolate reductase (DHFR). Conditions: cited from earlier work.
In a further data set the test system is DHFR fusion protein. As to the kind of experiment: MP5 competition assay (yeast three-hybrid X-gal plate assay of lacZ transcription). The class given is cell-based. Conditions: 1 μM D8M, X-gal plates, LexA/B42 chimeras of DHFR and rGR. Here is the method: FIG. 7. MP5 Competition Assay. […] Columns A through H on each plate correspond to yeast strains containing different LexA- and/or B42-chimeras: A, LexA-Sec16p, B42-Sec6p. A is a direct protein-protein interaction used as a positive control. B, LexA, B42. C, LexA-eDHFR, B42-rGR. D, LexA-mDHFR, B42-rGR. E, LexA-rGR, B42-eDHFR. F, LexA-rGR, B42-mDHFR. G, LexA-eDHFR, B42. H, LexA, B42-rGR.
This competition assay was performed using D8M as the “well characterized” small molecule.

A further data set has as its target T1, LexA-rGR and B42-DHFR (UniProt P06536+P0ABQ4).
T1 sequence (P06536 542-776 limits assumed): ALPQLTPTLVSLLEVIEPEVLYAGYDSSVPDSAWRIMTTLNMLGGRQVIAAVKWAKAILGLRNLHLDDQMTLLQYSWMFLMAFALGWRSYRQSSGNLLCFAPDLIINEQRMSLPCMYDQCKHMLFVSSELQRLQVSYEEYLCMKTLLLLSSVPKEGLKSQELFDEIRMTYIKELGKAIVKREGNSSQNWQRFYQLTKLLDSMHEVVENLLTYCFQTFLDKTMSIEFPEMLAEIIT
T1 sequence (P0ABQ4 1-159): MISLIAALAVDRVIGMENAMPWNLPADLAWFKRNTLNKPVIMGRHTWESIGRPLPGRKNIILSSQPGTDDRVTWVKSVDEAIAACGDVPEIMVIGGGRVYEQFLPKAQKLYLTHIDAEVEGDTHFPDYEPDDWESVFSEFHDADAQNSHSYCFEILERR
Conditions: shown by WO 01/53355; cited from earlier work.

Take `CN(Cc1cnc2nc(N)nc(N)c2n1)c1ccc(C(=O)N[C@@H](CCC(=O)O)C(=O)O)cc1` [MTX, methotrexate]: in the data set on E. coli, the “growth in the presence of MTX” value was “grow in the presence of MTX”. The “growth in the presence of MTX” value in the data set with S. cerevisiae is “grow in the presence of MTX”. Besides, in data set [1], the “affinity of DHFR binding” value is “nM affinity” and the “affinity of DHFR inhibition” value is on record as “pM affinity”.
`C[C@@H]1C[C@H]2C3CCC4=CC(=O)C=C[C@]4(C)[C@@]3(F)[C@@H](O)C[C@]2(C)[C@@]1(O)C(=O)NCCSCCCCCCCCSCC[C@H](NC(=O)c1ccc(N(C)Cc2cnc3nc(N)nc(N)c3n2)cc1)C(=O)O` (stereo partly drawn) [D8M]: the “induction of lacZ transcription” value in the data set on DHFR fusion protein is recorded as “induced lacZ transcription”. Also, the “dimerization of LexA-rGR and B42-DHFR based on lacZ transcription” value at LexA-rGR and B42-DHFR is “mediate the dimerization of LexA-rGR and B42-DHFR”.

The record behind these values is patent US20030138785A1 (priority 2001, published 2003).
